In brackets after ≈: the same amount, converted by molar mass. Read-outs that look alike come from different tables or passages of the source.
Key:
Staphylococcus aureus [1] = test: MIC, broth microdilution (CLSI); format: cell-based; details: Staphylococcus aureus, read-out: MIC
Description: (§1) The stock solutions were allowed to stand in DIW for one hour at room temperature prior to testing to allow time for auto-sterilization.
(§2) The test organisms were originally received from clinical sources, or from the American Type Culture Collection. When received, the organisms were sub-cultured onto an appropriate agar medium. Following incubation, colonies were harvested from these plates and cell suspensions prepared and frozen at −80° C. On the day prior to assay, a frozen vial of each culture was thawed and the contents were streaked for isolation onto either Tryptic Soy Agar (Becton Dickinson, Sparks, Md.) or Tryptic Soy Agar (Enhanced Hemolysis; Becton Dickinson) supplemented with 5% sheep blood for streptococci. The agar plates were incubated overnight at 35° C. Staphylococcus aureus ATCC 29213 and Enterococcus faecalis ATCC 29212 were included as quality control isolates in the assay.
(§3) The test medium for the broth microdilution testing was Mueller Hinton II broth (MHB II; BBL# 212322, Lot # 6024003, Becton Dickinson). The broth was prepared at 1.05× normal weight/volume to offset the 5% volume of the drug solution in the final test plates.
(§4) CLSI guidelines recommend that Mueller-Hinton II broth be adjusted to contain 50 mg/L of Ca^++ ions for proper daptomycin MIC results. Since Mueller-Hinton II broth has already been adjusted by the manufacturer to contain approximately 25 mg/L of Ca^++ ions, an additional 25 mg/L of Ca^++ ions was adjusted with 10 mg/mL of CaCl2.2H2O (Lot# 084K0215; Sigma-Aldrich) added at a rate of 0.1 mL/L of broth, for each desired increment of 1 mg/L. This supplemented Mueller-Hinton II broth was used only in wells containing daptomycin.
(§5) MIC values were determined using a broth microdilution method as recommended by the Clinical and Laboratory Standards Institute (Clinical and Laboratory Standards Institute^a. Methods for Dilution Antimicrobial Susceptibility Tests for Bacteria That Grow Aerobically; Approved Standard-Seventh Edition. Clinical and Laboratory Standards Institute document M7-A7 [ISBN 1-56238-587-9]. Clinical and Laboratory Standards Institute, 940 West Valley Road, Suite 1400, Wayne, Pa. 19087-1898 USA, 2006). Automated liquid handlers (Multidrop 384, Labsystems, Helsinki, Finland; Biomek 2000 and Multimek 96, Beckman Coulter, Fullerton Calif.) were used to conduct serial dilutions and make liquid transfers.
(§6) Wells of two standard 96-well microdilution plates (Falcon 3918; Becton Dickinson) were filled with 150 μL of […] using the Multidrop 384. These plates were used to prepare the drug “mother plates” that provided the serial drug dilutions for replicate “daughter plates”. The Biomek 2000 was used to transfer 150 μl of each stock solution from the wells of column 1 of a deep well plate to the corresponding wells in column 1 of the mother plate and to make eleven 2-fold serial dilutions in the mother plates. The wells of column 12 contained no drug and were the organism growth control wells. Each mother plate has the capacity to create a total of 12 daughter plates.
(§7) The daughter plates were loaded with 180 μL of one of the media described above using the Multidrop 384. The wells of the daughter plates ultimately contained 180 μL of MHB II, 10 μL of drug solution, and 10 μL of bacterial inoculum prepared in broth appropriate to the test organism (1.05×). The daughter plates were prepared on the Multimek 96 instrument, which transferred 10 μL of drug solution from each well of the mother plate to each corresponding well of each daughter plate in a single step.

Enterococcus faecium = test: MIC, broth microdilution (CLSI); format: cell-based; details: Enterococcus faecium, read-out: MIC
Description: as §1, §2, §3, §4, §5, §6, §7

Enterococcus faecalis [2] = details: quality control range for Enterococcus faecalis ATCC 29212 (# 101); cited from earlier work
Streptococcus pyogenes = test: MIC, broth microdilution (CLSI); format: cell-based
Description: (§8) The solvent for all of the compounds was deionized water (DIW), and all of the compounds dissolved in the solvent. The stock solutions were allowed to stand in DIW for one hour at room temperature prior to testing to allow time for auto-sterilization.
as §2, §3
For streptococci, lysed horse blood (Lot # H88621; Cleveland Scientific, Bath, Ohio) was added to the MHB II at a final concentration of 2%.
as §4, §5, §6
(§9) The daughter plates were loaded with 180 μL of one of the media described above using the Multidrop 384. The wells of the daughter plates ultimately contained 180 μL of MHB II, 10 μL of drug solution, and 10 μL of bacterial inoculum prepared in broth appropriate to the test organism (1.05×). The daughter plates were prepared on the Multimek 96 instrument, which transferred 10 μL of drug solution from each well of the mother plate to each corresponding well of each daughter plate in a single step. […]

Staphylococcus aureus [3] = details: quality control range for Staphylococcus aureus ATCC 29213 (# 100); cited from earlier work
[4] = system: Staphylococcus epidermidis; test: MIC, broth microdilution (CLSI); format: cell-based; details: read-out: MIC
Description: as §8, §2, §3, §4, §5, §6, §9

Enterococcus faecalis [5] = test: MIC, broth microdilution (CLSI); format: cell-based; details: Enterococcus faecalis, read-out: MIC
Description: as §8, §2, §3, §4, §5, §6, §9

Streptococcus pneumoniae = test: MIC, broth microdilution (CLSI); format: cell-based; details: Streptococcus pneumoniae, read-out: MIC
Description: as §8, §2, §3
For streptococci, lysed horse blood (Lot # H88621; Cleveland Scientific, Bath, Ohio) was added to the MHB II at a final concentration of 2%. […]
as §5, §6, §7
Standardized inoculum of each organism was prepared following Clinical and Laboratory Standards Institute (Clinical and Laboratory Standards Institute^b. Performance Standards for Antimicrobial Susceptibility Testing; Sixteenth Informational Supplement. CLSI document M100-S16 [ISBN 1-56238-588-7]. Clinical and Laboratory Standards Institute, 940 West Valley Road, Suite 1400, Wayne, Pa. 19087-1898 USA, 2006) methods. The inoculum for each organism was dispensed into sterile reservoirs divided by length (Beckman Coulter), and the Biomek 2000 was used to inoculate the plates. […]

[6] = ATCC 29213 / MSSA, Staphylococcus aureus Micromyx # 100, MSSA, CLSI QC strain (ATCC 29213)
[7] = MRSA, Staphylococcus aureus Micromyx # 1004, MRSA, FA^R
[8] = MRSA, Staphylococcus aureus Micromyx # 1730, Community-acquired MRSA
[9] = MSSA, Staphylococcus aureus Micromyx # 1002, MSSA, macrolide^R
[10] = Staphylococcus aureus Micromyx # 1016, FA^R
[11] = Staphylococcus aureus Micromyx # 1727, GM^R
[12] = Staphylococcus aureus Micromyx # 1731, CHL^R
[13] = Enterococcus faecium Micromyx # 750, Van^S
[14] = Enterococcus faecium Micromyx # 1721, DAP^R
[15] = Streptococcus pyogenes Micromyx # 942, macrolide^R
[16] = Streptococcus pyogenes Micromyx # 985, Susceptible, read-out: MIC
[17] = Staphylococcus epidermidis Micromyx # 108, MRSE
[18] = Staphylococcus epidermidis Micromyx # 835, MSSE
[19] = ATCC29212, Enterococcus faecalis Micromyx # 101, VSE, CLSI QC strain (ATCC 29212)
[20] = Enterococcus faecalis Micromyx # 413, LZD^R from res. dev. or other
[21] = Enterococcus faecalis Micromyx # 486, Van A
[22] = Enterococcus faecalis Micromyx # 1088, Van B
[23] = Streptococcus pneumoniae Micromyx # 374, Wild type
[24] = Streptococcus pneumoniae Micromyx # 379, parC, gyrA, gyrB
[25] = Streptococcus pneumoniae Micromyx # 927, mef(A)
[26] = Streptococcus pneumoniae Micromyx # 928, erm(B)
[27] = Staphylococcus aureus Micromyx # 106, RA^R
[28] = Staphylococcus aureus Micromyx # 1651, LZD^R clinical isolate
[29] = VISA, Staphylococcus aureus Micromyx # 1723, VISA
[30] = Enterococcus faecium Micromyx # 752, Van A
[31] = Enterococcus faecium Micromyx # 1120, Van B

Structure (SMILES) | MIC (Staphylococcus aureus [1]; [6]) | MIC (Staphylococcus aureus [1]; [7]) | MIC (Staphylococcus aureus [1]; [8]) | MIC (Staphylococcus aureus [1]; [9]) | MIC (Staphylococcus aureus [1]; [10]) | MIC (Staphylococcus aureus [1]; [11]) | MIC (Staphylococcus aureus [1]; [12]) | MIC (Enterococcus faecium; [13]) | MIC (Enterococcus faecium; [14]) | MIC, CLSI Recommended Range (Enterococcus faecalis [2]) | MIC (Streptococcus pyogenes; [15]) | MIC (Streptococcus pyogenes; [16]) | MIC, CLSI Recommended Range (Staphylococcus aureus [3]) | MIC [4, 17] | MIC [4, 18] | MIC (Enterococcus faecalis [5]; [19]) | MIC (Enterococcus faecalis [5]; [20]) | MIC (Enterococcus faecalis [5]; [21]) | MIC (Enterococcus faecalis [5]; [22]) | MIC (Streptococcus pneumoniae; [23]) | other results
Cc1onc(-c2ccccc2)c1C(=O)N[C@@H]1C(=O)N2[C@@H]1SC(C)(C)[C@@H]2C(=O)O [Oxacillin, oxacillin] | 0.25 µg/mL (≈ 0.623 µM) | 16 µg/mL (≈ 39.9 µM) | 32 µg/mL (≈ 79.7 µM) | 0.5 µg/mL (≈ 1.25 µM) | 32 µg/mL (≈ 79.7 µM) | 0.25 µg/mL (≈ 0.623 µM) | 0.25 µg/mL (≈ 0.623 µM) | 4 µg/mL (≈ 9.96 µM) | 32 µg/mL (≈ 79.7 µM) | 8 to 32 µg/mL | ≦0.12 μg/mL | ≤ 0.12 µg/mL | 0.12 to 0.5 µg/mL | 64 µg/mL (≈ 159 µM) | ≤ 0.12 µg/mL | 16 µg/mL (≈ 39.9 µM) | 64 µg/mL (≈ 159 µM) | 16 µg/mL (≈ 39.9 µM) | 16 µg/mL (≈ 39.9 µM) | 16 µg/mL (≈ 39.9 µM) | MIC (Streptococcus pneumoniae; Streptococcus pneumoniae Micromyx # 375, parC, gyrB): ≤ 0.12 µg/mL; MIC (Streptococcus pneumoniae; Streptococcus pneumoniae Micromyx # 376, parC, gyrA): ≤ 0.12 µg/mL; MIC (Streptococcus pneumoniae; [24]): ≤ 0.12 µg/mL; MIC (Streptococcus pneumoniae; [25]): 16 µg/mL (≈ 39.9 µM); MIC (Streptococcus pneumoniae; [26]): 16 µg/mL (≈ 39.9 µM)
CCCCCCCCCC(=O)N[C@@H](Cc1c[nH]c2ccccc12)C(=O)N[C@H](CC(N)=O)C(=O)N[C@@H](CC(=O)O)C(=O)N[C@@H]1C(=O)NCC(=O)N[C@@H](CCCN)C(=O)N[C@@H](CC(=O)O)C(=O)N[C@H](C)C(=O)N[C@@H](CC(=O)O)C(=O)NCC(=O)N[C@H](CO)C(=O)N[C@@H]([C@H](C)CC(=O)O)C(=O)N[C@@H](CC(=O)c2ccccc2N)C(=O)O[C@@H]1C [Daptomycin] | 0.5 µg/mL (≈ 0.309 µM) | 0.25 µg/mL (≈ 0.154 µM) | 0.5 µg/mL (≈ 0.309 µM) | 0.5 µg/mL (≈ 0.309 µM) | 0.25 µg/mL (≈ 0.154 µM) | 0.25 µg/mL (≈ 0.154 µM) | 0.25 µg/mL (≈ 0.154 µM) | ≤ 0.12 µg/mL | 8 µg/mL (≈ 4.94 µM) | 1 to 4 µg/mL | ≦0.12 μg/mL | ≤ 0.12 µg/mL | 0.25 to 1 µg/mL | 0.5 µg/mL (≈ 0.309 µM) | 0.5 µg/mL (≈ 0.309 µM) | 1 µg/mL (≈ 0.617 µM) | 0.5 µg/mL (≈ 0.309 µM) | 0.5 µg/mL (≈ 0.309 µM) | 1 µg/mL (≈ 0.617 µM) | ≤ 0.12 µg/mL | MIC (Staphylococcus aureus [1]; [27]): 0.5 µg/mL (≈ 0.309 µM); MIC (Staphylococcus aureus [1]; [28]): 0.5 µg/mL (≈ 0.309 µM); MIC (Staphylococcus aureus [1]; [29]): 1 µg/mL (≈ 0.617 µM); MIC (Enterococcus faecium; [30]): 2 µg/mL (≈ 1.23 µM); MIC (Enterococcus faecium; [31]): 2 µg/mL (≈ 1.23 µM); MIC (Streptococcus pneumoniae; [24]): 0.25 µg/mL (≈ 0.154 µM); MIC (Streptococcus pneumoniae; [25]): ≤ 0.12 µg/mL; MIC (Streptococcus pneumoniae; [26]): ≤ 0.12 µg/mL
CC(=O)NC[C@H]1CN(c2ccc(N3CCOCC3)c(F)c2)C(=O)O1 [Linezolid, linezolid] | 8 µg/mL (≈ 23.7 µM) | 4 µg/mL (≈ 11.9 µM) | 8 µg/mL (≈ 23.7 µM) | 4 µg/mL (≈ 11.9 µM) | 8 µg/mL (≈ 23.7 µM) | 4 µg/mL (≈ 11.9 µM) | 8 µg/mL (≈ 23.7 µM) | 4 µg/mL (≈ 11.9 µM) | 2 µg/mL (≈ 5.93 µM) | 1 to 4 µg/mL | 4 µg/mL (≈ 11.9 µM) | 4 µg/mL (≈ 11.9 µM) | 1 to 4 µg/mL | 4 µg/mL (≈ 11.9 µM) | 4 µg/mL (≈ 11.9 µM) | 8 µg/mL (≈ 23.7 µM) | 64 µg/mL (≈ 190 µM) | 4 µg/mL (≈ 11.9 µM) | 4 µg/mL (≈ 11.9 µM) | 4 µg/mL (≈ 11.9 µM) | MIC (Staphylococcus aureus [1]; [27]): 4 µg/mL (≈ 11.9 µM); MIC (Staphylococcus aureus [1]; [28]): 64 µg/mL (≈ 190 µM); MIC (Staphylococcus aureus [1]; [29]): 4 µg/mL (≈ 11.9 µM); MIC (Enterococcus faecium; [30]): 4 µg/mL (≈ 11.9 µM); MIC (Enterococcus faecium; [31]): 4 µg/mL (≈ 11.9 µM); MIC (Streptococcus pneumoniae; [25]): 2 µg/mL (≈ 5.93 µM); MIC (Streptococcus pneumoniae; [26]): 2 µg/mL (≈ 5.93 µM)

Source: patent US20090124539A1, “Methods of treating infection” (priority 2007, published 2009)
